What is called IC50 is the midpoint of a concentration-inhibition curve. What is called viability, T/C is the result in the treated group divided by that in the control group, in per cent.

Where “and” joins values, the source holds several entries; their conditions need not be identical. Equal entries are not always repeated.

Consider seven compounds from PubChem BioAssay AID2060599 (Molecular Pharmacology Branch, DTP, NCI, 2025).

The assay concerns 817829-284-R-J1-PDC complex spheroids, viability. The assay can be described thus: Anticancer human tumor 817829-284-R-J1-PDC patient-derived colon adenocarcinoma cell line growth inhibition [CLK]. The note with it: for viability, T/C: stronger effect = lower value. In outline: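 Multi-cell-type spheroids combined patient-derived tumor cells with HUVEC endothelial cells and human mesenchymal stem cells. Paired agents were dosed in half-log steps down from about clinical Cmax, or from 10 microM where Cmax was unknown.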

Where [1] appears, read: curve of first compound, second compound 0.0316 µM.
Where [2] appears, read: curve of first compound, second compound 0.1 µM.
[3] abbreviates: curve of first compound, second compound 0.316 µM.
The mark [4] stands for this setting: curve of first compound, second compound 1 µM.
The mark [5] stands for this setting: curve of first compound, second compound 3.16 µM.
[6] abbreviates: curve of first compound, second compound 10 µM.
Setting [7] is: second compound 0.0316 µM, first compound 0.0316 µM.
Setting [8] is: second compound 0.0316 µM, first compound 0.1 µM.
Setting [9] is: second compound 0.0316 µM, first compound 0.316 µM.
Where [10] appears, read: second compound 0.0316 µM, first compound 1 µM.
Where [11] appears, read: second compound 0.0316 µM, first compound 3.16 µM.
[12] abbreviates: second compound 0.0316 µM, first compound 10 µM.
[13] abbreviates: second compound 0.1 µM, first compound 0.0316 µM.
[14] abbreviates: second compound 0.1 µM, first compound 0.1 µM.
Setting [15] is: second compound 0.1 µM, first compound 0.316 µM.
The mark [16] stands for this setting: second compound 0.1 µM, first compound 1 µM.
The mark [17] stands for this setting: second compound 0.1 µM, first compound 3.16 µM.
[18] abbreviates: second compound 0.1 µM, first compound 10 µM.
The mark [19] stands for this setting: second compound 0.316 µM, first compound 0.0316 µM.
The mark [20] stands for this setting: second compound 0.316 µM, first compound 0.1 µM.
The mark [21] stands for this setting: second compound 0.316 µM, first compound 0.316 µM.
Setting [22] is: second compound 0.316 µM, first compound 1 µM.
Where [23] appears, read: second compound 0.316 µM, first compound 3.16 µM.
Setting [24] is: second compound 0.316 µM, first compound 10 µM.
The mark [25] stands for this setting: second compound 1 µM, first compound 0.0316 µM.
Where [26] appears, read: second compound 1 µM, first compound 0.1 µM.
The mark [27] stands for this setting: second compound 1 µM, first compound 0.316 µM.
Where [28] appears, read: second compound 1 µM, first compound 1 µM.
[29] abbreviates: second compound 1 µM, first compound 3.16 µM.
Where [30] appears, read: second compound 1 µM, first compound 10 µM.
[31] abbreviates: second compound 3.16 µM, first compound 0.0316 µM.
[32] abbreviates: second compound 3.16 µM, first compound 0.1 µM.
Where [33] appears, read: second compound 3.16 µM, first compound 0.316 µM.
[34] abbreviates: second compound 3.16 µM, first compound 1 µM.
Where [35] appears, read: second compound 3.16 µM, first compound 3.16 µM.
[36] abbreviates: second compound 3.16 µM, first compound 10 µM.
Setting [37] is: second compound 10 µM, first compound 0.0316 µM.
Where [38] appears, read: second compound 10 µM, first compound 0.1 µM.
Where [39] appears, read: second compound 10 µM, first compound 0.316 µM.
Setting [40] is: second compound 10 µM, first compound 1 µM.
The mark [41] stands for this setting: second compound 10 µM, first compound 3.16 µM.
[42] abbreviates: second compound 10 µM, first compound 10 µM.
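Also: spheroids exposed to the agents for seven days before readout.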

As for `C=C(F)C(=O)N1CCN(c2nc(OCC3CCCN3C)nc3c2CCN(c2cccc4cccc(Cl)c24)C3)CC1CC#N` (centres undefined) + CN1CCN(c2cc(C(=O)Nc3cc4cc(-c5cnn(C)c5)ccc4cn3)ccn2)CC1, the IC50 was 1600 nM under setting [1]; less than 31.6 nM under setting [2]; less than 31.6 nM under setting [3]; less than 31.6 nM under setting [4]; less than 31.6 nM under setting [5]; less than 31.6 nM under setting [6]. The viability, T/C is, setting by setting: under setting [7], 79.5%; under setting [8], 71.8%; under setting [9], 63.4%; under setting [10], 79.5%; under setting [11], 16.2%; under setting [12], 0.06%. In addition, the viability, T/C was 24.5% under setting [13]; 29.8% under setting [14]; 16.7% under setting [15]; 22.5% under setting [16]; 9.48% under setting [17]; 0.04% under setting [18]. Besides, the viability, T/C runs as follows: under setting [19], 2.04%; under setting [20], 2.26%; under setting [21], 2.74%; under setting [22], 2.59%; under setting [23], 0.76%; under setting [24], 0.04%. Further, the viability, T/C is 0.15% under setting [25]; 0.11% under setting [26]; 0.11% under setting [27]; 0.11% under setting [28]; 0.84% under setting [29]; 0.05% under setting [30]. Moreover, the viability, T/C by setting is: under setting [31], 0.2%; under setting [32], 0.19%; under setting [33], 0.2%; under setting [34], 0.15%; under setting [35], 0.11%; under setting [36], 0.08%. In addition, the viability, T/C reads like this: under setting [37], 0.1%; under setting [38], 0.11%; under setting [39], 0.19%; under setting [40], 0.21%; under setting [41], 0.2%; under setting [42], 0.16%.

As for `CC(Nc1ccc2c(c1)OCCn1cc(N3C(=O)OCC3C(F)F)nc1-2)C(N)=O` (centres undefined) + CNC(=O)c1ccc(Nc2nc(OC3CCCC3)c3c(-c4ccc5nc(C)oc5c4)c[nH]c3n2)c(OC)c1, the half-maximal inhibitory concentration (IC50) under setting [1] is less than 31.6 nM; the 50% inhibitory concentration (IC50) under setting [2] was less than 31.6 nM; the half-inhibitory concentration (IC50) under setting [3] is less than 31.6 nM; the IC50 under setting [4] was less than 31.6 nM; the IC50 under setting [5] is less than 31.6 nM; the half-maximal inhibitory concentration (IC50) under setting [6] was less than 31.6 nM. For the same compound, the viability, T/C was 40% under setting [7]; 32.3% under setting [8]; 42.4% under setting [9]; 48.6% under setting [10]; 29.8% under setting [11]; 20.4% under setting [12]. The viability, T/C is, setting by setting: under setting [13], 20.4%; under setting [14], 26.4%; under setting [15], 20.2%; under setting [16], 20%; under setting [17], 33.4%; under setting [18], 15.1%. The viability, T/C is 37.9% under setting [19]; 19.6% under setting [20]; 19.9% under setting [21]; 21.6% under setting [22]; 18.5% under setting [23]; 15.5% under setting [24]. Besides, the viability, T/C is, setting by setting: under setting [25], 23.4%; under setting [26], 20.8%; under setting [27], 16.7%; under setting [28], 17.6%; under setting [29], 16.1%; under setting [30], 15.3%. In addition, the viability, T/C is 22.2% under setting [31]; 18.8% under setting [32]; 16.5% under setting [33]; 18.6% under setting [34]; 13.1% under setting [35]; 13.6% under setting [36]. The viability, T/C by setting is: under setting [37], 15.1%; under setting [38], 16.6%; under setting [39], 14%; under setting [40], 18.2%; under setting [41], 16.8%; under setting [42], 9.33%.

Regarding `O=c1[nH]cc(F)c(=O)[nH]1`, the viability, T/C reads like this: (compound 0.0316 µM) 66% and 85.8%; (compound 0.1 µM) 74.9% and 79.8%; (compound 0.316 µM) 98.9% and 85%; (compound 1 µM) 67.1% and 46.5%; (compound 3.16 µM) 63.9% and 53.2%; (compound 10 µM) 39.6% and 38%. In addition, where the note is “curve of compound”, the half-inhibitory concentration (IC50) is 5960 nM and 898 nM.

For the compound `COc1ccc([C@@H](O)c2cc(-c3ncnc4cc(N5CCOCC5)ccc34)c(F)cc2Cl)nn1`, the viability, T/C (compound 0.0316 µM) is 117%; the viability, T/C (compound 0.1 µM) is 105%; the viability, T/C (compound 0.316 µM) is 86.4%; the viability, T/C (compound 1 µM) was 48.6%; the viability, T/C (compound 3.16 µM) was 31.6%; the viability, T/C (compound 10 µM) was 21.2%. Also, the IC50 (curve of compound) stood at 1040 nM.

As for `Nc1ccccc1NC(=O)c1ccc(CNC(=O)OCc2cccnc2)cc1`, the viability, T/C (compound 0.0316 µM) was 89%; the viability, T/C (compound 0.1 µM) was 85.3%; the viability, T/C (compound 0.316 µM) is 53.5%; the viability, T/C (compound 1 µM) was 35.9%; the viability, T/C (compound 3.16 µM) is 10%; the viability, T/C (compound 10 µM) is 0.1%. Where the note is “curve of compound”, the IC50 came out at 465 nM.

Turning to `CCc1c2c(nc3ccc(O)cc13)-c1cc3c(c(=O)n1C2)COC(=O)[C@]3(O)CC` + CNC(=O)c1ccc(Nc2nc(OC3CCCC3)c3c(-c4ccc5nc(C)oc5c4)c[nH]c3n2)c(OC)c1, the IC50 by setting is: under setting [1], less than 3.16 nM; under setting [2], less than 3.16 nM; under setting [3], less than 3.16 nM; under setting [4], less than 3.16 nM; under setting [5], less than 3.16 nM; under setting [6], less than 3.16 nM. Also, the viability, T/C is 18.9% (second compound 0.0316 µM, first compound 0.00316 µM); 16.6% (second compound 0.0316 µM, first compound 0.01 µM); 13.2% under setting [7]; 9.4% under setting [8]; 6.53% under setting [9]; 4.13% under setting [10]. For the same compound, the viability, T/C (second compound 0.1 µM, first compound 0.00316 µM) was 21.3%; the viability, T/C (second compound 0.1 µM, first compound 0.01 µM) was 17.2%; the viability, T/C under setting [13] was 13.2%; the viability, T/C under setting [14] was 9.71%; the viability, T/C under setting [15] was 7.28%; the viability, T/C under setting [16] is 4.24%. Moreover, the viability, T/C is 17.3% (second compound 0.316 µM, first compound 0.00316 µM); 17% (second compound 0.316 µM, first compound 0.01 µM); 13% under setting [19]; 7.86% under setting [20]; 5.8% under setting [21]; 3.35% under setting [22]. The viability, T/C (second compound 1 µM, first compound 0.00316 µM) is 15.2%; the viability, T/C (second compound 1 µM, first compound 0.01 µM) was 12.4%; the viability, T/C under setting [25] is 7.9%; the viability, T/C under setting [26] was 5.92%; the viability, T/C under setting [27] is 4.02%; the viability, T/C under setting [28] was 2.78%. Further, the viability, T/C (second compound 3.16 µM, first compound 0.00316 µM) is 13.2%; the viability, T/C (second compound 3.16 µM, first compound 0.01 µM) is 9.13%; the viability, T/C under setting [31] is 6.71%; the viability, T/C under setting [32] is 6.34%; the viability, T/C under setting [33] is 4.45%; the viability, T/C under setting [34] was 2.73%. Further, the viability, T/C reads like this: (second compound 10 µM, first compound 0.00316 µM) 11.9%; (second compound 10 µM, first compound 0.01 µM) 8.01%; under setting [37], 7.69%; under setting [38], 4.85%; under setting [39], 4.44%; under setting [40], 2.57%.

On to `CCCS(=O)(=O)Nc1ccc(F)c(C(=O)c2c[nH]c3ncc(-c4ccc(Cl)cc4)cc23)c1F`, for which the viability, T/C reads like this: (compound 0.0316 µM) 86.7% and 79.4%; (compound 0.1 µM) 48.8% and 64.2%; (compound 0.316 µM) 66% and 89%; (compound 1 µM) 54.1% and 77%; (compound 3.16 µM) 52.5% and 59.8%; (compound 10 µM) 25.3% and 16.9%. Moreover, for the setting “curve of compound”, the 50% inhibitory concentration (IC50) was 1210 nM and 4110 nM.
